From a melting point compilation (Tetko et al.; mined from patent text by program, amines drawn as free bases though some values may be those of a salt)

With `N=C(NO)c1nc(-c2ccc(C(F)(F)F)cc2)cc(C(F)(F)F)n1` the melting point was 224 °C. For `C=CC12CCc3cc(O)ccc3C1CCC1(C)C(O)CCC12` (stereo not drawn), the melting point was 149 to 151 °C. Compound `CN(C)CC(C)(CSC(=S)N(C)C)[N+](=O)[O-]` (stereo not drawn) has a melting point of 75.5 to 78 °C. For `CCCCCCCCCCCCCCCCNc1ccc(C(=O)OCC(C)O)cc1` (stereo not drawn), the melting point was 91 to 93 °C. `CC(=O)Oc1cc(C(=O)Cc2ccccc2)cc([N+](=O)[O-])c1OC(C)=O` showed a melting point of 94 to 95 °C. With `CCCS(=O)(=O)Nc1ccc(Sc2c(O)c3c(=O)n(-c4ccccc4)c4ccccc4c3oc2=O)cc1` the melting point was 249 to 251 °C. With `Cc1cc(CCCOc2c(C)cc(C#N)cc2C)on1` the melting point was 46 to 48 °C. Compound `CC(C)(C)n1nnc(-c2ccc(CNc3n[nH]c4ncnc(Nc5cccc(Cl)c5)c34)cc2)n1` has a melting point of 168 to 170 °C. `COc1ccc2c(-c3ccccc3)csc2c1` showed a melting point of 58 to 59 °C. Compound `[N-]=[N+]=Nc1cccc2c1C(=O)N(CCCCCC(=O)Cl)C2=O` has a melting point of 68 to 69 °C. `CCc1nn(Cc2ccccn2)c2c(=O)[nH]c(-c3cc(S(C)(=O)=O)ccc3OCCOC)nc12` showed a melting point of 166 to 167 °C. For `Cn1c2ccc(Cl)cc2c2c(CO)nn(-c3ccccc3)c(=O)c21`, the melting point was 278 to 280 °C. Compound `O=C(Cn1c(=O)sc2ccc(Cl)cc21)N1CCC(O)CC1` has a melting point of 180 °C. `CCCCCCCCC#CCCCCCCCCCCCC(=O)O` showed a melting point of 58 °C. Work on `CCn1c(=O)c2cc(C(=O)O)cn2c2ccccc21` yielded a melting point of 314 to 316 °C. For `CC1(C)CC(=O)c2cc(C#N)c(N3CCN(c4ccccc4)CC3)nc2C1`, the melting point was 167 to 170 °C. `CCOc1cccc(C(COC)n2nc(C(=O)O)c3c2-c2ccc(OCc4cncnc4)cc2CC3)c1` (stereo not drawn) showed a melting point of 208 to 211 °C. `COc1cc2c3c(cccc3c1[N+](=O)[O-])C(=O)N(O)C2=O` showed a melting point of 264 to 265 °C. `COC(=O)[C@@H](N)CCc1nnnn1CC(=O)N[C@H](C)C(=O)OC` showed a melting point of 87 to 89 °C. Work on `CN(C)CC1CCc2cc(NC(=O)c3ccc(-c4ccc(Cl)c(Cl)c4)cc3)ccc2C1` (stereo not drawn) yielded a melting point of 143 to 145 °C. `N#Cc1ccc(N2CCN(c3ccncc3)CC2)cc1` gave a melting point of 155 to 158 °C. In the case of `NC(=O)c1ccc(F)c(O)c1F`, the melting point is reported as 161 to 162 °C. In the case of `Cc1nc(N2CCCC(NCC3CC3)C2=O)sc1C(=O)NCc1ccccc1` (stereo not drawn), the melting point is reported as 125 to 126 °C. `CN1CCC(Oc2ccc3ccc(N)nc3n2)CC1` showed a melting point of 174 °C. Work on `COC(=O)c1scc(-c2ccccc2OC)c1-n1cccc1` yielded a melting point of 148 °C. In the case of `CC(C)(S)CN(Cc1ccccc1)C(=O)CCC(=O)O`, the melting point is reported as 123 to 126 °C. `CN(C(=O)Nc1cccnc1)c1ccc2c(ccn2C)c1` gave a melting point of 168 to 170 °C. With `Cc1ccc(S(=O)(=O)c2c(O)c3ccccc3n(C)c2=O)cc1` the melting point was 191 °C. `CCOc1ccc(-c2nc(C=O)cs2)cc1OCC` showed a melting point of 84 to 87 °C. In the case of `COc1ccc(Oc2ccc(OCc3ccccc3)cc2)c([N+](=O)[O-])c1`, the melting point is reported as 88 to 89.5 °C. `CC(=O)Oc1cc(C(C)=O)c(O)cc1NS(C)(=O)=O` showed a melting point of 205 to 206 °C. Work on `Cc1cc(OCC(O)CNC(C)(C)C)ccc1-c1nc(C(F)(F)F)c[nH]1` (stereo not drawn) yielded a melting point of 162 to 164 °C. `CN(CCCNC(=O)COc1nc2ccccc2s1)Cc1ccc(Cl)c(Cl)c1` showed a melting point of 113 to 115 °C. For `CCOC(=O)c1cn(-c2nonc2C)c2cc(F)c(F)c(C)c2c1=O`, the melting point was 174 °C. With `CN1CCN(C(=O)c2cc(Oc3ccc4c(c3)CCN4C(=O)Nc3cccc(C(F)(F)F)c3)ncn2)CC1` the melting point was 203 to 204 °C. For `CCc1nc(/C=C/c2cn(-c3ccccc3)nc2O)c(C)s1`, the melting point was 184 to 186 °C. `CCCCCCCN(CCc1ccc(OC(C)(C)C(=O)O)cc1)C(=O)Nc1ccc(F)cc1` showed a melting point of 162 to 164 °C. With `CCOC(=O)c1c(C(F)F)nc(C(F)(F)F)c(C(=O)OCC)c1C1CC1` the melting point was 30 to 32 °C. For `O=C1COc2ccc(-c3cccnc3-c3ccccc3)cc2N1`, the melting point was 176 to 178 °C. `CCOC(=O)c1c(-c2ccc(N)cc2)c(C#N)c(=O)n2ccccc12` showed a melting point of 260 to 262 °C. For `O=c1ccn(-c2cccc(C(F)(F)F)c2)nc1-c1ccoc1-c1ccccc1`, the melting point was 159 to 163 °C. `CC(=Cc1ccc2c(c1)Sc1cc(C=C(C)c3ccccc3)ccc1N2C)c1ccccc1` gave a melting point of 189 to 191 °C. In the case of `CC(=O)Nc1cccc(N(C)C)n1`, the melting point is reported as 118 to 119 °C. Work on `O=C(O)Cc1ccc(Cc2nc3c(F)c(F)cc(F)c3s2)s1` yielded a melting point of 132 to 133 °C. With `COc1ccc2ncc(C#N)c(Nc3ccc(Cl)cc3F)c2c1` the melting point was > 250 °C. In the case of `CC(=O)Oc1ccc2c(c1)CC=C1C2CCC2(C)C=CCC12` (stereo not drawn), the melting point is reported as 77 to 80 °C. For `Cc1nc(N)sc1-c1ccnc(Nc2ccc(N3CCSCC3)cc2)n1`, the melting point was 180 to 182 °C. `COc1ccc(C2CNC(=O)N2C)cc1NC1CC2CCC1C2` (stereo not drawn) showed a melting point of 171 to 174 °C. In the case of `CCCNC(=O)CCCn1c(CCC)nc2c(N)nc3ccccc3c21`, the melting point is reported as 161 to 163 °C. For `CCCn1c(SC)nc2ccsc2c1=O`, the melting point was 142 to 144 °C. Work on `Cc1noc(NC(=O)N2CCN(c3nc(-c4ccc(F)cc4F)cs3)CC2)c1C` yielded a melting point of 166 to 167 °C. With `CCOc1ccc(C=O)cc1CCl` the melting point was 74.5 to 75.5 °C. With `CN(Cc1cccs1)C(=O)C12CC3CC(CC(O)(C3)C1)C2` the melting point was 88 to 91 °C. For `COC(=O)C(=O)c1ccc(OCCOc2cccc(F)c2)cc1`, the melting point was 68 to 69 °C. `CC(C)(C)N1CC(c2cccc(C(F)(F)F)c2)OCC1=O` (stereo not drawn) gave a melting point of 81 to 83 °C. Compound `CCCCSc1cc(C(=O)OCC)cc(S(N)(=O)=O)c1Cc1ccccc1` has a melting point of 120 to 122 °C. For `O=[N+]([O-])c1ccnc(-c2cc(C(F)(F)F)ccc2F)c1`, the melting point was 58.1 °C. Work on `CC(C)(C)c1cc(C(=O)Nc2nc(CC(=O)NCCN3CCN(c4ncccn4)CC3)cs2)cc(C(C)(C)C)c1O` yielded a melting point of 175 to 179 °C. For `COC12CC(CO)CN(C)C1CC1CNc3cccc2c31` (stereo not drawn), the melting point was 134 to 138 °C. `CC=CC(=O)c1c(CCC)n(Cc2ccccc2Cl)c2cc(C(N)=O)ccc12` showed a melting point of 186 °C. Work on `Cc1ccc(S(=O)(=O)Nc2ccc(N)c(C3CCCC3)c2)cc1` yielded a melting point of 128 °C. `NCc1ccc(N2CCCN(c3ccc(CCC(=O)O)cc3)C2=O)cc1` gave a melting point of 229 to 231 °C. `COC(=O)c1ccc(-c2ccc(-c3ccccc3)c(-c3ccc4c(c3)C(C)(C)CCC4(C)C)c2)cc1O` showed a melting point of 134 to 136 °C. In the case of `Nc1ccc(-c2nc3ccc(F)cc3s2)cc1`, the melting point is reported as 152 to 155 °C. Compound `COc1cc(CCl)ccc1OCCCCOc1ccc(CCl)cc1OC` has a melting point of 116 to 118 °C. Compound `CN(C(=O)c1ccc2nonc2c1)C1CCC(F)(F)CC1` has a melting point of 137 to 138 °C. `CCOP(=O)(OCC)c1cc2cc(S(N)(=O)=O)c(Cl)cc2[nH]c1=O` showed a melting point of 288 to 290 °C. `CC(C)N(C(=O)Cl)c1ccccc1` gave a melting point of 89 to 90 °C. Compound `Cc1oc(-c2ccccc2)nc1CCOc1ccc(CCCCCC2OC(=O)NC2=O)cc1` (stereo not drawn) has a melting point of 157 to 158 °C. In the case of `COc1ccc(-c2cc(=O)[nH]cn2)cc1OC`, the melting point is reported as 248 to 249 °C. `O=C(Cc1cccc(OC(F)(F)F)c1)NCc1cccc2c1C(=O)N(C1CCC(=O)NC1=O)C2=O` (stereo not drawn) showed a melting point of 178 to 180 °C. `CCOC(=O)CCNC(=O)c1[nH]c(C)c(-c2nc3ccc(C(=O)c4ccccc4)cc3[nH]2)c1C` gave a melting point of 135 to 137 °C. With `CC(C)(C)OC(=O)N1CCN(CCOc2cc(-c3ccccc3)on2)CC1` the melting point was 110 to 111 °C.
